Experiment [1] concerns the target T1, BIR3 domain of XIAP (recombinant XIAP-BIR3, residues 238-358) (Homo sapiens, UniProt P98170).
T1 construct: Recombinant XIAP-BIR3 (residues 238-358); GST (N, cleaved yes); made in house; host or cells: E. coli
The experiment in a line: Fluorescence-based competition assay of tetrapeptide libraries (Example 1). It counts as binding, mammalian. The text has this:
Expression and Purification of BIR3. […] The soluble fraction of the GST-BIR3 in the E. coli lysate was purified over a glutathione sepharose column, and further purified by anion exchange chromatography (Mono-Q, Amersham Biosciences). The fusion protein was cleaved by thrombin, and the GST portion was removed by the glutathione sepharose column. The BIR3 protein was further purified over a gel filtration column (Superdex 30, Amersham Biosciences).
Fluorescence Experiments. Luminescence spectra were recorded using a Photon Technologies, Inc. fluorometer with a Xe arc lamp and a PMT detector. […] The buffer used in all of the fluorescence experiments was 50 mM potassium phosphate, 100 mM NaCl, 2 mM 1,4-dithio-DL-threitol (DTT), pH 7.
Assay of Tetrapeptide Libraries. The samples were prepared in a 96 well plate lined with glass tubes, to prevent adsorption of the dye to plastic. The plate was stored on ice in the dark between measurements. […] 390 μL of this stock solution were added to 50 wells of the 96 well plate. 50 μL of the test tetrapeptide solutions were added and mixed immediately prior to taking the emission spectra. The final solutions were 5 μM in both badan and BIR3, and approximately 20-30 μM in the tetrapeptide solutions. […] 50 μL of water was added to these wells, again as controls, to determine the intensity of the unbound dye.
The binding of various tetrapeptide mimics to the BIR3 domain of XIAP was determined using a fluorescence-based competition assay. The assay is based on an environment-sensitive fluorogenic dye molecule, badan. Badan is a dye whose sensitivity to environmental changes has previously been used to probe protein binding interactions. […] As the dye is displaced from the binding pocket by the test molecule, the emission shifts back towards the aquated spectrum.

The target of experiment [2] is T2, BIR3 domain of XIAP (Homo sapiens, UniProt P98170).
T2 construct: Recombinant XIAP-BIR3 (residues 238-358); GST (N, cleaved yes); made in house; host or cells: E. coli
The experiment in a line: Fluorescence displacement assay: AVPC-badan displaced from BIR3 by test tetrapeptide (typical assay, Tables 1 and 2). It counts as binding, mammalian. Particulars: for Intensity (470 nm): emission intensity of AVPC-badan with BIR3 and test tetrapeptide, excitation 387 nm, lower = more dye displaced; for Fraction free: fraction of AVPC-badan free (displaced from BIR3), from intensity at 470 nm; for Krelative: relative equilibrium constant for displacement of AVP-dye, larger = greater affinity for BIR3; for K: binding (equilibrium) constant for displacement of AVP-dye, position-4 library, 5 μM dye and protein, larger = greater affinity. An excerpt:
The ability to quickly assay small molecules for their effectiveness in disrupting protein-protein interactions is critical to the development of viable drug candidates. One aspect of the present invention comprises an assay to test the binding affinity of a library of tetrapeptide molecules for the BIR3 domain of an inhibitor of apoptosis protein (LAP), particularly the mammalian XIAP. The assay is based on a detectable label, preferably a fluorogenic dye molecule. In preferred embodiments, the fluorophore is attached to a tripeptide, AVP, whose sequence matches the N-terminal three residues of Smac. The general structure of this molecule, therefore, is AVP[X], wherein X is the fluorophore. The molecule is referred to herein as an “AVP-dye”. The AVP-dye packs into the groove of the BIR3, causing a large shift in emission maximum and intensity when the environment of the dye changes from water to the hydrophobic pocket of the protein. If a molecule (e.g. the native Smac protein or a tetrapeptide mimic) displaces the dye, then emission will shift back to the spectrum observed in water. Since the emission intensity is related to the binding of the tetrapeptide, the intensity can be used to estimate the equilibrium constant, K, for displacement of the AVP-dye by the tetrapeptide. The larger the equilibrium constant, the greater affinity the tetrapeptide has for the BIR3.
The aforementioned AVP-dye is used in an assay of test compounds that may, like the Smac tetrapeptide AVPI, bind to the BIR3 domain of XIAP, thereby relieving XIAP-mediated suppression of apoptosis. This is a high-throughput, cell-free assay, that is assembled as follows. A protein comprising the BIR3 domain of an IAP is placed in an assay medium comprising a suitable buffer, as described above. Preferably, this is a recombinant protein comprising the BIR3 domain, but a full IAP protein also may be used. An aliquot of the AVP-dye is added to the reaction mixture, in the presence of the test compound. Controls comprise the BIR3 and the dye in the absence of the test compound and, optionally, BIR3 and the dye in the presence of the naturally occurring tetrapeptide, AVPI. […] Alternatively, a emission spectrum is measured at the selected excitation wavelength. In one type of measurement, the test compound is added and an emission spectrum is measured by scanning from, e.g., 460-480 nm. In another type of measurement, the emission intensity at a particular wavelength, e.g., 470 nm, is measured. […] Thus, the binding affinity of the test compound may be calculated as a function of its ability to displace the dye from the BIR3 domain, according to the following calculation: [formula]
Stock solution of badan, BIR3, and buffer were mixed: 2.5 ml of badan, 1.75 ml BIR3, and 15.25 ml of buffer were mixed in a glass vial which had been chilled to 4° C. Added 390 μL of the stock solution to 50 wells in the pre-chilled 96 well plate (wells A1-E2).
Stock solution of badan and buffer were mixed: 150 μL badan and 1020 μL of buffer were mixed in a small glass vial (also chilled) and added to 3 wells on the plate in 390 μL aliquots (F1-F3).
The 96 well plate was stored over ice in an insulated bucket while the emission spectra of the samples were taken. Fifty μL of the appropriate test solution (or water, for the control experiments) was added with a micropipet, the solution mixed with a Pasteur pipet before adding the sample to the fluorescence cuvette. While one sample was being scanned, the cuvette from the previous scan was washed with EtOH and then next sample was prepared.

Non-standard residues stand in square brackets, D forms with d. Residues, ends and D or L forms follow the SMILES beside them. ξ: configuration not given here. NMeF = CN[C@@H](Cc1ccccc1)C(=O)O; NMeV = CN[C@H](C(=O)O)C(C)C; ξAbu = CCC(N)C(=O)O

T2 sequence (P98170 238-358): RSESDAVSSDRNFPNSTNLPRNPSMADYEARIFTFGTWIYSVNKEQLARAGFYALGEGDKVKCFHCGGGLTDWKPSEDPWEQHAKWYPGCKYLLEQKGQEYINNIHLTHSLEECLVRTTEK
T1 sequence (P98170 238-358): as above

Regarding `CC(C)[C@@H](C(=O)N1CCC[C@H]1C(=O)N(C)[C@@H](Cc1ccccc1)C(N)=O)N(C)C(=O)[C@H](C)N` [A(N-Me)VP(N-Me)F] (H-A[NMeV]P[NMeF]-NH2; N-terminus and C-terminus assumed), the equilibrium dissociation constant (Kd) (commonly the constant that tells how readily two partners part at equilibrium) in experiment [1] was determined as 91000 nM.
Still for that read-out and setting: then `CC(C)[C@@H](C(=O)N1CCC[C@H]1C(=O)N[C@@H](Cc1ccccc1)C(N)=O)N(C)C(=O)[C@H](C)N` [A(N-Me)VPF], with 83000 nM; and `CC[C@H](C)[C@H](NC(=O)[C@@H]1CCCN1C(=O)[C@H](C(C)C)N(C)C(=O)[C@H](C)N)C(N)=O` [A(N-Me)VPI], with 257000 nM; and `CC[C@H](C)[C@H](NC(=O)[C@@H]1CCCN1C(=O)[C@H](C)NC(=O)[C@H](C)N)C(N)=O` [AAPI] (H-AAPI-NH2; N-terminus and C-terminus assumed), with 2800 nM.
The same measure, in the same setting: then `CC[C@H](C)[C@H](NC(=O)[C@@H]1CCCN1C(=O)[C@H](CC(=O)O)NC(=O)[C@H](C)N)C(N)=O` [ADPI] (H-ADPI-NH2; N-terminus and C-terminus assumed), with 17000 nM.
The same measure, in the same setting: then `CC[C@H](C)[C@H](NC(=O)[C@@H]1CCCN1C(=O)[C@H](CCC(=O)O)NC(=O)[C@H](C)N)C(N)=O` [AEPI] (H-AEPI-NH2; N-terminus and C-terminus assumed), with 2700 nM; and `CC[C@H](C)[C@H](NC(=O)[C@@H]1CCCN1C(=O)CNC(=O)[C@H](C)N)C(N)=O` [AGPI] (H-AGPI-NH2; N-terminus and C-terminus assumed), with 46000 nM.
For the compound `CC[C@H](C)[C@H](NC(=O)[C@@H]1CCCN1C(=O)[C@H](Cc1c[nH]cn1)NC(=O)[C@H](C)N)C(N)=O` [AHPI] (H-AHPI-NH2; N-terminus and C-terminus assumed), in experiment [1], the Kd is 330 nM. Also, in experiment [2], the “Intensity (470 nm)” value was found to be 41450 and the Fraction free was 0.8543.
For `CC[C@H](C)[C@H](NC(=O)[C@@H]1CCCN1C(=O)[C@@H](NC(=O)[C@H](C)N)[C@@H](C)CC)C(N)=O` [AIPI] (H-AIPI-NH2; N-terminus and C-terminus assumed), in experiment [2], the “Intensity (470 nm)” value is 44902, the Fraction free worked out at 0.8375 and the Krelative worked out at 2.6613.
Turning to `CC[C@H](C)[C@H](NC(=O)[C@@H]1CCCN1C(=O)[C@H](CC(C)C)NC(=O)[C@H](C)N)C(N)=O` [ALPI] (H-ALPI-NH2; N-terminus and C-terminus assumed), in experiment [2], the “Intensity (470 nm)” value is 38650, the Fraction free is 0.8679 and the Krelative is listed as 3.5812.
In the case of `CC[C@H](C)[C@H](NC(=O)[C@@H]1CCCN1C(=O)[C@H](CC(N)=O)NC(=O)[C@H](C)N)C(N)=O` [ANPI] (H-ANPI-NH2; N-terminus and C-terminus assumed), in experiment [1], the Kd amounted to 1500 nM.
As for `CC[C@H](C)[C@H](NC(=O)[C@@H]1CCCN1C(=O)[C@@H]1CCCN1C(=O)[C@H](C)N)C(N)=O` [APPI] (H-APPI-NH2), the Kd in experiment [1] is above 100000 nM.
The same measure, in the same setting: then `C[C@H](N)C(=O)N[C@@H](CCCNC(=N)N)C(=O)N1CCC[C@H]1C(=O)N(C)[C@@H](Cc1ccccc1)C(N)=O` [ARP(N-Me)F] (H-ARP[NMeF]-NH2; N-terminus and C-terminus assumed), with 710 nM; and `CC[C@H](C)[C@@H](C(N)=O)N(C)C(=O)[C@@H]1CCCN1C(=O)[C@H](CCCNC(=N)N)NC(=O)[C@H](C)N` [ARP(N-Me)I], with 190000 nM.
On to `CC[C@H](C)[C@H](NC(=O)[C@@H]1CCCN1C(=O)[C@H](CCCNC(=N)N)NC(=O)[C@H](C)N)C(N)=O` [ARPI], for which the Kd in experiment [1] was determined as 180 nM. Besides, in experiment [2], the “Intensity (470 nm)” value came to 29455 and the Fraction free was 0.9125.
Consider `CC[C@H](C)[C@H](NC(=O)[C@@H]1CCCN1C(=O)[C@H](CO)NC(=O)[C@H](C)N)C(N)=O` [ASPI] (H-ASPI-NH2; N-terminus and C-terminus assumed), for which the Kd in experiment [1] worked out at 1400 nM.
For the compound `CC[C@H](C)[C@H](NC(=O)[C@@H]1CCCN1C(=O)[C@@H](NC(=O)[C@H](C)N)[C@@H](C)O)C(N)=O` [ATPI] (H-ATPI-NH2; N-terminus and C-terminus assumed), the Kd in experiment [1] was found to be 1200 nM.
Still for that read-out and setting: then `CC(C)[C@H](NC(=O)[C@H](C)N)C(=O)N[C@@H](C)C(=O)N[C@@H](Cc1ccccc1)C(N)=O` [AVAF], with 560 nM; and `CC(C)[C@H](NC(=O)[C@H](C)N)C(=O)N1CCC[C@H]1C(=O)N(C)[C@@H](Cc1ccccc1)C(N)=O` [AVP(N-Me)F] (H-AVP[NMeF]-NH2; N-terminus and C-terminus assumed), with 890 nM; and `CC[C@H](C)[C@@H](C(N)=O)N(C)C(=O)[C@@H]1CCCN1C(=O)[C@@H](NC(=O)[C@H](C)N)C(C)C` [AVP(N-Me)I], with 174000 nM.
As for `CC(C)[C@H](NC(=O)[C@H](C)N)C(=O)N1CCC[C@H]1C(=O)N[C@@H](C)C(N)=O` [AVPA] (H-AVPA-NH2; N-terminus and C-terminus assumed), in experiment [1], the Kd came to 14000 nM. In experiment [2], this compound had a K of 0.05518.
The like results for `CC(C)[C@H](NC(=O)[C@H](C)N)C(=O)N1CCC[C@H]1C(=O)N[C@@H](CS)C(N)=O` [AVPC, Ala-Val-Pro-Cys-NH2] were, in that order, 1400 nM and 0.1034.
Regarding `CC(C)[C@H](NC(=O)[C@H](C)N)C(=O)N1CCC[C@H]1C(=O)N[C@@H](CC(N)=O)C(N)=O` [AVPN] (H-AVPN-NH2), in experiment [1], the Kd is above 100000 nM.
The same measure, in the same setting: then `CC(C)[C@H](NC(=O)[C@H](C)N)C(=O)N1CCC[C@H]1C(=O)N[C@@H](CCC(N)=O)C(N)=O` [AVPQ] (H-AVPQ-NH2), with above 100000 nM.
Same read-out and setting: then `CC[C@H](C)[C@H](NC(=O)[C@@H]1CCCN1C(=O)[C@H](Cc1c[nH]c2ccccc12)NC(=O)[C@H](C)N)C(N)=O` [AWPI] (H-AWPI-NH2; N-terminus and C-terminus assumed), with 990 nM.
On to `CCC(N)C(=O)N[C@H](C(=O)N1CCC[C@H]1C(=O)N[C@H](C(N)=O)[C@@H](C)CC)C(C)C` (stereo partly drawn) [AbuVPI] (H-[ξAbu]VPI-NH2; N-terminus and C-terminus assumed), for which, in experiment [2], the “Intensity (470 nm)” value is 34770 and the Fraction free amounted to 0.8867.
In the case of `CC[C@H](C)[C@H](NC(=O)[C@@H]1CCCN1C(=O)[C@@H](NC(=O)CN)C(C)C)C(N)=O` [GVPI] (H-GVPI-NH2; N-terminus and C-terminus assumed), the Kd in experiment [1] is 9000 nM.
Same read-out and setting: then `CC[C@H](C)[C@H](NC(=O)[C@@H]1CCCN1C(=O)[C@@H](NC(=O)[C@@H](N)CO)C(C)C)C(N)=O` [SVPI], with 27000 nM.

The record behind these values is patent US20050176649A1, “Iap binding peptides and assays for identifying compounds that bind iap” (priority 2001, published 2005).
